In paper PMC7496097, “Establishment of a system for finding inhibitors of ε RNA binding with the HBV polymerase” (Genes to Cells, 2020):

What was measured:
[1] = biological target: T1, Strep‐TP‐spacer‐RT‐His8 (HBVpol 1‐690aa; TP‐RT) (Hepatitis B virus ar/Japan/S-207/1988, UniProt Q9YZR5); experiment: surface plasmon resonance; details: binding considered nonspecific by the authors (also binds GFP control); unreliable
T1 construct: gene P; residues 1-690 of HBV polymerase (TP, spacer, RT); no polymerase activity detected
T1 sequence (Q9YZR5 1-690): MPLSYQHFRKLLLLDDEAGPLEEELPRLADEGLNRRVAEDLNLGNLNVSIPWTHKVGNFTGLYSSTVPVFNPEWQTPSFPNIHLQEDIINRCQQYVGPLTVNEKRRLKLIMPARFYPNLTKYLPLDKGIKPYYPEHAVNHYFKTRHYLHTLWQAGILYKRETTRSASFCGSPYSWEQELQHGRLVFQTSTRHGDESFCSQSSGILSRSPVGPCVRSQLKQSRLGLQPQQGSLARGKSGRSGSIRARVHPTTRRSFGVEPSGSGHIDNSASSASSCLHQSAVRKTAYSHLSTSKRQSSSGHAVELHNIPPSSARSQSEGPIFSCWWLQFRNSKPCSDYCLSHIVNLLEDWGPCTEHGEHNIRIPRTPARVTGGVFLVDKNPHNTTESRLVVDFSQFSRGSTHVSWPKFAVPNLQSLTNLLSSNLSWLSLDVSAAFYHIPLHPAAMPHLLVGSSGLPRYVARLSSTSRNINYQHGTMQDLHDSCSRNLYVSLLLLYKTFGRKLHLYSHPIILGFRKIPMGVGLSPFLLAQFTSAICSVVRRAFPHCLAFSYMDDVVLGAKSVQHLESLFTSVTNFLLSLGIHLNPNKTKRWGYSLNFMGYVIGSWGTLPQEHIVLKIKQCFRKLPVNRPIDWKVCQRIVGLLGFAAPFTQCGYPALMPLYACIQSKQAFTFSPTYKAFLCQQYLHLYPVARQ

[2] = biological target: T1, Strep‐TP‐spacer‐RT‐His8 (HBVpol 1‐690aa; TP‐RT); experiment: plate assay, inhibition of DIG-labelled epsilon RNA binding to immobilised protein, luminescence; details: 5 pmol DIG-epsilon RNA WT, pH 7.5, room temperature, 3 hr; binding considered nonspecific by the authors; unreliable
[3] = biological target: T2, Strep‐TP‐spacer‐RT‐His8 (HBVpol 1‐690aa; TP‐RT) (Hepatitis B virus ar/Japan/S-207/1988, UniProt Q9YZR5); experiment: as above; details: 5 pmol DIG-epsilon RNA WT, pH 7.5, room temperature, 3 hr
T2 construct: gene P; residues 1-690 of HBV polymerase (TP, spacer, RT); no polymerase activity detected

[4] = biological target: T2, Strep‐TP‐spacer‐RT‐His8 (HBVpol 1‐690aa; TP‐RT); experiment: surface plasmon resonance; format: binding
[5] = biological target: T3, Strep-TP-spacer-RT-His8 (HBV polymerase TP-spacer-RT), refolded (Hepatitis B virus, UniProt Q9YZR5 1-690); experiment: streptavidin plate binding assay (anti-DIG-HRP luminescence); refolded protein; 5 pmol RNA; 50 mM Tris-HCl pH 7.5, 150 mM NaCl, 1 mM EDTA, 0.05% NP-40, 1 mg/ml BSA, 1 ug/ml poly(I/C), 0.1% protease inhibitor cocktail, 2 mM DTT; room temperature, 3 h (competition 30 min); details: protein: recombinant, tags: N-terminal Strep, self-annealed
T3 sequence: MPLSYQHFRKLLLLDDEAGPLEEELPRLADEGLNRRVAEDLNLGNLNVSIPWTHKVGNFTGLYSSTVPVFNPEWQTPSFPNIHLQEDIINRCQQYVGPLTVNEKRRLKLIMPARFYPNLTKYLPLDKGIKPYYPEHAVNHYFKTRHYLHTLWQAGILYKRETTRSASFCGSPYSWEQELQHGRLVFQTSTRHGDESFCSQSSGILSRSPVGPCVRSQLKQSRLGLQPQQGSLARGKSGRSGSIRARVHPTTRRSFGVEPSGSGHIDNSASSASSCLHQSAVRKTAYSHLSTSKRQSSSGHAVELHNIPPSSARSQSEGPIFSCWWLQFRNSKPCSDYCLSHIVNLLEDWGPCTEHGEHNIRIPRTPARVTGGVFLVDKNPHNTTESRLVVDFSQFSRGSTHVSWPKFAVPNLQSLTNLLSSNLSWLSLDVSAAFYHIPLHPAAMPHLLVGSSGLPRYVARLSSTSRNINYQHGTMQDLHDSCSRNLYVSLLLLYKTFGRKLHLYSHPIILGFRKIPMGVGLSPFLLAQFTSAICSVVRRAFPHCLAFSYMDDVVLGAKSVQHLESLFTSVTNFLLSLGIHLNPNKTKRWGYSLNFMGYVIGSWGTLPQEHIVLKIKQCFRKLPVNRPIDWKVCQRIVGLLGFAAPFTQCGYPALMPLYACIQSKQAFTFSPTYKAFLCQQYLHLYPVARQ

His6-SUMO-TP = biological target: T4, His6-SUMO-TP (Hepatitis B virus, UniProt Q9YZR5 1-177); experiment: nickel plate binding assay (anti-DIG-HRP luminescence); 5 pmol RNA; no specific binding; 50 mM Tris-HCl pH 7.5, 150 mM NaCl, 1 mM EDTA, 0.05% NP-40, 1 mg/ml BSA, 1 ug/ml poly(I/C), 0.1% protease inhibitor cocktail, 2 mM DTT; room temperature, 3 h (competition 30 min); details: protein: recombinant; tags: N-terminal His6-SUMO; hairpin with central bulge and apical loop, self-annealed
T4 sequence: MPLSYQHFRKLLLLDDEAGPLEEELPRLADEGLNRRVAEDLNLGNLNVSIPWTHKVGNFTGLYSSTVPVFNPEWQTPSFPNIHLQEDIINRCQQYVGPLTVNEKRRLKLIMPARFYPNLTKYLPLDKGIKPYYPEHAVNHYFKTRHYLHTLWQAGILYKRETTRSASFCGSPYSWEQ

NC(Cc1cc(O)c(O)cc1O)C(=O)O (racemic) [6‐hydroxy‐DL‐DOPA]
KD [1]: 11 nM
IC50 [2]: ~ 6.6 µM

CCCCCCCC/C=C\CCCCCCCC(=O)NCCc1ccc(O)c(O)c1 [N‐oleoyldopamine]
IC50 [3]: ~410 nM
Kd [4]: 72 nM

B1: epsilon WT RNA (structured_RNA)
RNA: UCUCAUGUUCAUGUCCUACUGUUCAAGCCUCCAAGCUGUGCCUUGGGUGGCUUUGGGGCAUGGACAUUGA
binding result ([5]; hairpin with central bulge and apical loop): binds
binding result (His6-SUMO-TP): no binding

B2: epsilon dBdL RNA (central bulge and apical loop deleted) (structured_RNA)
RNA: UCUCAUGUUCAUGUCCUAGCCUCCAAUUGGGUGGCUUUGGGGCAUGGACAUUGAC
binding result ([5]; hairpin): no binding
